Experimental data as given in patent publication US20060035867A1, “Methods of treating cancer and the pain associated therewith using endothelin antagonists” (priority 2000, published 2006).

How the values were obtained:
[1] = test system: Crosslinked N-telopeptide (ICTP) of type I collagen; test: Crosslinked N-Telopeptide Levels (DiaSorin ICTP radioimmunoassay); assay type: in vivo; conditions: hormone refractory prostate cancer subjects; 10 mg ABT-627 vs placebo; human serum; AUC in FIG. 4
Description: (§1) Studies were performed on male subjects with asymptomatic hormone refractory prostate cancer with rising PSA levels and on male subjects with symptomatic hormone refractory prostate cancer with rising PSA levels and pain. Subjects in the phase II studies had castrate levels of testosterone, either due to pharmacologic intervention, via leuprolide (Lupron®) or goserelin (Zoladex®), or via surgical castration. Subjects received ABT-627 or placebo. The following tests were conducted:
(§2) Markers of osteoblastic activity were assessed using urine samples. Bone markers include bone alkaline phosphatase (BAP), deoxypridinoline, and N-telopeptide of Type I collagen. Blood samples were collected prior to dosing on Day 1, Day 42, Day 84, Day 168, and every 28 days after Day 168, with a final collection on the last day of the study.
Cross-linked N-telopeptide levels were determined using the DiaSorin (Stillwater, Minn.) assay for the quantitative determination of carboxyterminal cross-linked telopeptide of type I collagen (ICTP) in human serum by equilibrium radioimmunoassay (RIA). Briefly, samples were incubated with the ^125I ICTP tracer and ICTP primary antibody for 2 hours at 37° C. Following the 2 hour incubation, a pre-precipitated second antibody complex was added to separate the bound from free tracer. […] The bound tracer in the pellet was counted with a gamma counter. […]

[2] = test system: male subjects with symptomatic hormone refractory prostate cancer with rising PSA levels and pain; test: Visual Analog Scale (VAS) pain assessment; assay type: in vivo, human; conditions: 2.5 mg or 10 mg ABT-627 vs placebo, independent of the effects of morphine, AUC in FIG. 3
Description: as §1, with “conducted: […]” for “conducted:”
During the course of the study, pain asessments were done daily, at bedtime, by the subject. […] The log also contained a table on which was recorded all daily pain medication consumed by the patient. […] Clinical personnel who received the logs measured the score by measuring the distance (in mm) from the “no pain” end mark to the point where the subject's line crossed the VAS line. […]
The weekly VAS scores were calculated excluding the lowest and highest score for each week and averaging the remaining five scores. […]
Weekly VAS scores are examined using a longitudinal analysis method to explore trends over time. The duration of the response, defined as the time from baseline to the last weekly assessment for which the responder definition was satisfied, was analyzed using the Kaplan-Meier methodology and logrank test.

[3] = test system: Interleukin-6; test: Interleukin-6 Levels (sandwich immunoassay, serum of treated subjects); assay type: in vivo, human; conditions: hormone refractory prostate cancer subjects, 2.5 mg or 10 mg ABT-627 vs placebo, AUC FIG. 1
Description: as §1
(§3) A number of recognized or putative biochemical markers of disease progression have been used to monitor treatment of individuals with prostate cancer. Among these markers are serum Prostate Specific Antigen (PSA), serum acid Phosphatase, Interleukin-6, and Chromagranin-A. As currently accepted, favorable treatment is marked by a decrease or slower rate of increase for PSA, acid phosphatase, and Interleukin-6, while a favorable response is marked by an increase in Chromagranin-A. […]
The effect of ABT-627 adminstration on Interleukin-6 levels in human serum samples was determined at Quintiles Laboratories using a sandwich immunoassay. […] After incubation, the wells were washed, and the bound enzymatic activity was measured using a chromogenic substrate. […]

[4] = test system: male subjects with hormone refractory prostate cancer; test: Bone scan (Tc-99m phosphonate, bone scan index); assay type: in vivo, human; conditions: 10 mg ABT-627 versus placebo, FIG. 6
Description: as §1
Bone scans were performed with an NDA approved, Tc-99m phosphonate type radiopharmaceutical. […] Each site was evaluated against a confidence score of 1 to 5, where 1 is negative, 2 is probably negative, 3 is equivocal, 4 is probably positive, and 5 is definitely positive. […] In addition, in a blinded study, a reference nuclear medicine physician interpreted the bone scans quantitatively as follows: the percent of involved bone was estimated for each individual bone, and the individual bone involvement was summed to calculate a global percent bone scan index (BSI). […]
Bone scans were conducted on each subject on day one of the study, and on the final day of the study, and the changes from baseline in bone scan index scores were analysed by mean change and mean percent change, adjusting for baseline characteristics as co-variates using SAS version XXX software.

[5] = test system: bone alkaline phosphatase (BAP); test: Bone Alkaline Phosphatase levels (Alkphase-B assay); assay type: in vivo, human; conditions: hormone refractory prostate cancer subjects; 10 mg ABT-627 vs placebo; AUC in FIG. 5
Description: as §1, §2
Bone Alkaline Phosphatase levels were determined using the bone-specific Alkphase-B® assay published by Metra Biosystems (Mountain View, Calif.).

[6] = test system: prostate specific antigen (PSA); test: Prostate Specific Antigen Level Assay (Chiron ACS: Centaur PSA2, serum of treated subjects); assay type: in vivo, human; conditions: hormone refractory prostate cancer subjects; 2.5 mg or 10 mg ABT-627 vs placebo; AUC in FIG. 2
Description: as §1, §3
The effect of ABT-627 administeration on prostate specific antigen (PSA) levels in human subject serum samples was determined using the procedure described in the Chiron Diagnostics ACS: Centaur PSA2 Assay. […]
Briefly, a subject population was treated with a placebo or 2.5 mg or 10 mg of ABT-627. […] A direct relationship exists between the amount of PSA present in the patient sample and the RLU's (relative light units) detected.

[7] = test system: Acid Phosphatase (ACP); test: Acid Phosphatase Levels (Sigma Diagnostics ACP Procedure No. 435, serum of treated subjects); assay type: in vivo, human; conditions: hormone refractory prostate cancer subjects, ABT-627 vs placebo, AUC in FIG. 7 (10 mg)
Description: as §1
A number of recognized or putative biochemical markers of disease progression have been used to monitor treatment of individuals with prostate cancer. […]
The effect of ABT-627 administeration on Acid Phosphatase levels in human subject serum samples was determined at Quintiles Laboratories using the chemical test described in Sigma Diagnostics Acid Phosphatase (ACP) Procedure No. 435. […] The alpha-naphthol immediately reacts with fast red TR salt to produce a yellow chromophore with an absorbance maximum at 405 nm. The rate of increase in absorbance at 405 nm is directly proportional to ACP activity in the sample. ACP activity was determined in the presence and absence of L-tartrate, the difference being attributed to prostatic acid phosphatase activity. […]

[8] = test system: Chromagranin-A; test: Chromagranin-A Levels (two site chemiluminescence assay, serum of treated subjects); assay type: in vivo, human; conditions: hormone refractory prostate cancer subjects, 2.5 mg/day of ABT-627, AUC in FIG. 8
Description: as §1, §3
The effect of ABT-627 adminstration on Chromagranin-A levels in human serum samples was determined by proprietary assay conducted at the Nichols Institute. […] The bound, acridinium-labeled material produces light that is detected in a luminometer after addition of triggering agents. […]

With `CCCCN(CCCC)C(=O)CN1C[C@H](c2ccc3c(c2)OCO3)[C@@H](C(=O)O)[C@@H]1c1ccc(OC)cc1` [ABT-627] the “Crosslinked N-telopeptide levels” value [1] was “decreased”, the “VAS scores (pain)” value [2] was “decrease in pain” and the “average change in baseline for Interleukin-6” value [3] was “lower”. The “proportion of total skeletal involvement (bone scan)” value [4] was “decrease in the proportion of total skeketal involvement”, the BAP levels [5] was “decreased” and the “rate of increase of PSA in the serum samples” value [6] was “decreases”. For the same compound, the “average change from baseline for acid phosphatase” value [7] was “decreased”, the “rate of increase for acid phosphatase” value [7] was “decreased” and the “average change from baseline for Chromagranin-A” value [8] was “higher”.
